Data on five compounds can be found in patent publication US7964738B2, “Pharmaceutical compositions and methods of use of lipophilic, silicon-substituted, cyclooxygenase-2 selective non-steroidal anti-inflammatory drugs and derivatives” (Silamed, Inc., priority 2004, dated 2011).

A value given as a limit tells only on which side of the number the result lay.

Data set [1] concerns the target T1, Recombinant human COX-2 (Homo sapiens, UniProt P35354).
T1 sequence (P35354 18-604): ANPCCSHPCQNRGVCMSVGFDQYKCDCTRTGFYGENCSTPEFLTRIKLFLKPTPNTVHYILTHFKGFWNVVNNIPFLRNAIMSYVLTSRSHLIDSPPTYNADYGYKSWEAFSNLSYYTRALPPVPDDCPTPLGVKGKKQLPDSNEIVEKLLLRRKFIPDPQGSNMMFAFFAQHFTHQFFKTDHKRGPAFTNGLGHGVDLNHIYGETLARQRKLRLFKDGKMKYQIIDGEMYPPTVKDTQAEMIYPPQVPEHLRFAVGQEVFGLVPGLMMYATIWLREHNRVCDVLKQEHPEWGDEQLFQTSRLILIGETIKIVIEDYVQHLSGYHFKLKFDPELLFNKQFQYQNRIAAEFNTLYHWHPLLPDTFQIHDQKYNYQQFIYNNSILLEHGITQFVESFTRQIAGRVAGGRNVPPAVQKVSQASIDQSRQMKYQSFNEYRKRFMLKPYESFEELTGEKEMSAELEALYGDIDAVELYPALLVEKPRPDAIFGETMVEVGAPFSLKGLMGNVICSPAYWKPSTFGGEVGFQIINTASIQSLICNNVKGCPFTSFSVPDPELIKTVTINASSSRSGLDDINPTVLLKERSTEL
Briefly: Recombinant human COX-2 enzyme assay (PGE2 by EIA). The class given is biochemical. To be noted: preincubation 5 min at 22° C., 2 μM arachidonic acid. Here is the method:
(§1) Recombinant human enzymes were reconstituted in buffer (100 mM Tris, pH 7.8 at 37° C.) containing 0.5 mM phenol (964 μl total volume). The enzyme preparations were preincubated with vehicle (DMSO) or compounds of the invention in DMSO (1% DMSO in final assay) for 10 min at 25° C. for COX-1 and 5 min at 22° C. for COX-2. Excess hematin was added 1 min prior to initiation of reaction (1.25 μM final hematin) with 4 μM (COX-1) and 2 μM (COX-2) arachidonic acid (sodium salt). The final assay volume was 1.0 ml (100 mM Tris (pH 7.8), 0.5 mM phenol, 1.25 μM hematin and arachidonic acid at 37° C.). The reaction was incubated for 35 s (maximum level of COX-2 accumulation as determined from time course studies), and terminated by addition of 50-60 μl of SnCl2 (1 mg/ml) in 0.1 N HCl. PGE2 production in the presence or absence of the drug was determined by Enzyme Immunoassay (EIA) analysis as described.
(§2) EIA Determination of Prostaglandins
(§3) EIA reagents for prostaglandin determination were purchased from commercial sources. PGE2 levels in enzyme assays were measured against standards prepared in the same milieu using standard methods. The EIA was conducted in 96-well micotiter plates and optical density measured using a microplate reader by standard methods.

The subject of data set [2] is human MiaPaCa-2 pancreatic cancer cells. Briefly: In vitro cellular proliferation assay (SRB). The class given is cell-based. Particulars: MIA PaCa-2, 72 h, 3 days incubation, starting concentration 100 μM, read-out: IC50 (growth inhibition, MiaPaCa-2).
Experimental: In vitro cell proliferation assays were performed using a 96-well plate based SRB (Sulforhodamine-B) assay. Briefly, human MiaPaCa-2 pancreatic cancer cells were plated in 100 μl medium on day 0 in 96-well microtiter plates (Falcon #3072). On day 1, 10 μl of serial dilutions of each compound (Nine 1:2 dilutions with a starting concentration of 100 μM) were added in triplicates to the plates. As a vehicle control, serial dilutions of DMSO with a starting concentration of 0.5% were also included. After incubation for 3 days at 37° C. in a humidified incubator, cells were fixed in situ with 50 μL of cold trichloroacetic acid (TCA, final concentration at 10% w/v) for 60 minutes. Cells were then washed 5 times with H2O and air-dried. Next, cells were stained with 20 μL of 0.2% SRB in 1% acetic acid and incubated at room temperature for 30 minutes and unbound SRB was removed by washing 5 times with 1% acetic acid and air-dried. Finally, bound SRB stain was solubilized in 50 μL of 50 μM Tris buffer before taking an optical density measurement at 570 nm using a BioTek Synergy™ HT Multiple Detection microplate reader. The growth inhibition data were expressed as the percentage of cell survival calculated from the background corrected absorbance. The surviving fraction of cells was determined by dividing the mean absorbance values of the test agent-treated samples by the mean absorbance values of untreated control.
Data set [3] concerns the target Recombinant human COX-1 (Homo sapiens, UniProt P23219). As to the kind of experiment: Recombinant human COX-1 enzyme assay (PGE2 by EIA). The format is biochemical. Here is the method: as §1, with “Excess hematin was added 1 min prior to initiation of reaction (1.25 μM final hematin) with 4 μM (COX-1) and 2 μM (COX-2) arachidonic acid (sodium salt). The final assay volume was 1.0 ml (100 mM Tris (pH 7.8), 0.5 mM phenol, 1.25 μM hematin and arachidonic acid at 37° C.).” left out
as §2, §3

Sequence of Recombinant human COX-1 (P23219 24-599): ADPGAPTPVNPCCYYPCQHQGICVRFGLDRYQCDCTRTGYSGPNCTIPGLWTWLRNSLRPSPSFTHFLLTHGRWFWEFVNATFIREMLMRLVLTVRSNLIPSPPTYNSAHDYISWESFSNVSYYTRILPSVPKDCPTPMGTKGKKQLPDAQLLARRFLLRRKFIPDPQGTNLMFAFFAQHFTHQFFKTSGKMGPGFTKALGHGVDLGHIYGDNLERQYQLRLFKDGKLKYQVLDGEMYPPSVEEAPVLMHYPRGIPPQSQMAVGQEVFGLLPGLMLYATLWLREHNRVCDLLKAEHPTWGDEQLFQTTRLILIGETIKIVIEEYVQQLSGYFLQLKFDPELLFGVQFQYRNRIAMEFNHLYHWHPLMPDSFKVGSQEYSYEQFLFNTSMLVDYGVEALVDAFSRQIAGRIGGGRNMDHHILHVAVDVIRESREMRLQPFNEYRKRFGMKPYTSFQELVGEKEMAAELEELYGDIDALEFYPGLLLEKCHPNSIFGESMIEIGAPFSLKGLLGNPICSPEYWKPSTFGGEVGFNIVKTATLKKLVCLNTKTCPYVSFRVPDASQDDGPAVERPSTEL

The IC50 is the point on the concentration scale where inhibition reaches its midpoint. The melting point is the temperature, or range, at which the solid turns liquid. For the compound `COc1ccc2c(c1)c(CC(=O)NCCC[Si](C)(C)C)c(C)n2C(=O)c1ccc(Cl)cc1` [Example 1, 2-(1-(4-chlorobenzoyl)-5-methoxy-2-methyl-1H-indol-3-yl)-N-(3-(trimethylsilyl)propyl)acetamide], the melting point was 97 to 101 °C. Also, in data set [1], the IC50 was 0.21 µM. In data set [2], the IC50 is 6.6 µM. Also, the IC50 in data set [3] is above 10 µM.
The like results for `COc1ccc2c(c1)c(CC(=O)NC[Si](C)(C)C)c(C)n2C(=O)c1ccc(Cl)cc1` [Example 2, 2-(1-(4-chlorobenzoyl)-5-methoxy-2-methyl-1H-indol-3-yl)-N-((trimethylsilyl)methyl)acetamide] were, in that order, 163 to 165 °C, 0.39 µM, 14.3 µM and 2.7 µM.
In turn, `COc1ccc2c(c1)c(CC(=O)NC[Si](C)(C)c1ccccc1)c(C)n2C(=O)c1ccc(Cl)cc1` [Example 3, 2-(1-(4-chlorobenzoyl)-5-methoxy-2-methyl-1H-indol-3-yl)-N-((dimethyl(phenyl)silyl)methyl)acetamide] returned a melting point of 121 to 124 °C. The IC50 in data set [1] came out at 0.31 µM. In data set [2], the IC50 worked out at 4.8 µM. Besides, the concentration for half-maximal inhibition (IC50) in data set [3] is above 10 µM.
Regarding `CCO[Si](CCCNC(=O)Cc1c(C)n(C(=O)c2ccc(Cl)cc2)c2ccc(OC)cc12)(OCC)OCC` [Example 4, 2-(1-(4-chlorobenzoyl)-5-methoxy-2-methyl-1H-indol-3-yl)-N-(3-(triethoxysilyl)propyl)acetamide], the melting point is 71 to 73 °C (dec.). Moreover, the IC50 in data set [1] turned out to be 0.57 µM. The IC50 in data set [2] was 20 µM. Also, in data set [3], the concentration for half-maximal inhibition (IC50) was determined as 5 µM.
For `COc1ccc2c(c1)c(CC(=O)O)c(C)n2C(=O)c1ccc(Cl)cc1` [Indomethacin, reference compound], the half-maximal inhibitory concentration (IC50) in data set [2] was above 100 µM.
